Data published in paper PMC11952368 (bioRxiv, 2025).

What was measured:
[1] = body and spleen weight / systemic toxicity, combination with Dox; assay type: in vivo, BALB/c mice; details: Dox 5 mg/kg i.p. every 72 hr; n=4 mice per group
[2] = test system: mammary tumor; details: ref [87]; cited from earlier work

| Structure (SMILES) | body and spleen weight [1] | tumor ECM normalization and chemotherapy response [2] |
| --- | --- | --- |
| COc1cccc2c1C(=O)c1c(O)c3c(c(O)c1C2=O)C[C@@](O)(C(=O)CO)C[C@@H]3O[C@H]1C[C@H](N)[C@H](O)[C@H](C)O1 [Dox, doxorubicin] | loss of body and spleen weight |  |
| Cc1ccc(=O)n(-c2ccccc2)c1 [Pirfenidone] |  | normalizes the tumor ECM for enhanced chemotherapy response |
